Results as given in US20260137696A1, “Compositions Comprising an Inhibitor of Galectin-3” (University of Liverpool, priority 2023, published 2026).
Entries after “also recorded” stand apart in the source; their conditions may differ.

Tests used:
SW620^Gal3− cells = assay: Tumour cell adhesion to laminin; type: cell-based, human; settings: 10 μM; Galectin-3-suppressed SW620^Gal3− cells
Method: (§1) White wall 96-well plates were coated with laminin (20 μg/ml) in coating buffer (15 mM Na2CO3 17 mM NaHCO3 pH 9.6) overnight at room temperature. ZsGreen- and luciferase-transfected SW620Gal3+, SW620Gal-3, or ACA19+ cells (5×10^5 cells/ml) were pre-incubated without or with 10 μM of the compound of Formula I or the compound of Formula II for 10 minutes before added into laminin-coated plates for 30 min at 37° C. The plates were washed twice with PBS before lysed by PLB for 5 min on a shaker. Luciferase Assay Reagent was then added before luminescence was measured using Tecan Infinite F200 microplate reader.
(§2) Nanty-six well plates were coated with matrix protein laminin (20 μg/ml) in coating buffer overnight. ZsGreen- and luciferase-labelled SW620Gal3− and SW620Gal3+ cells (5×10^5 cells/ml) were mixed without or with 10 μM inhibitors for 15 minutes before introduced to the laminin-coated plates for 30 minutes at 37° C. The plates were washed twice with PBS and the bound cells were lysed by Passive lysis buffer. After addition of Luciferase Assay Reagent (LAR) for 10 minutes, the luminescence intensity in the wells was measured by a microplate reader.

SW620^Gal3+ cells = assay: Tumour cell adhesion to laminin; type: cell-based, human; settings: 10 μM; Galectin-3-expressing SW620^Gal3+ cells
Method: as §1, §2

HUVECs = assay: Vascular cell tubule formation (angiogenesis); type: cell-based, human; settings: different concentrations
Method: Vascular cell tubule formation was assessed with HUVECs in the absence or presence of different concentrations of the compounds of Formula I or Formula II.
Matrigel matrix (50 μl) was added to 96-well plates for 60 min at 37° C. to allow gel formation. HUVEC cells (1×10^5 cells/ml in 1:1 EGM/EBM2 media) was introduced to the plates without or with Galectin-3 (2 μg/ml) or different concentrations of compound inhibitors for 24 hr at 37° C. Endothelial cell tube formation was examined with Leica DMLA Laser Microscope. The total number of branching points and the sum of the lengths of tubes were calculated.

Galectin-3 = target: T1, Galectin-3 (Homo sapiens, UniProt P17931); assay: Binding affinity to Galectin-3 by Tryptophan Fluorescence Spectroscopy (TFS); settings: Galectin-3 10 μM, titration 0 to 224 μM
T1 construct: made in house; host or cells: E. coli
Method: (§3) The binding affinity of the compounds of Formula I and Formula II to Galectin-3 is assessed by Tryptophan Fluorescence Spectroscopy (TFS). The compounds of Formula I and Formula II bind to Galectin-3 with binding affinity (KD) at low μM;
as §3, with “FIG. 2A and FIG. 2B show analysis of the binding affinity of the compounds of Formula I and Formula II to Galectin-3. The binding” for “The binding”, “at low μM.” for “at low μM;”
The binding affinity of the inhibitors to Galectin-3 was determined by Intrinsic Tryptophan Fluorescence Spectroscopy (TFS) exactly as we described recently (Sindrewicz, P., et al., Intrinsic tryptophan fluorescence spectroscopy reliably determines galectin-ligand interactions. Sci Rep, 2019. 9(1): p. 11851, herein incorporated by reference). The Galectin-3 concentration used was 10 μM and the inhibitor titration concentrations were from 0 to 224 μM. DMSO/control buffer (PBS with 2 mM EDTA) titrations were performed and used for background subtraction.
The binding affinities of the compounds of Formula I and compounds of Formula II to Galectin-3 was determined by Tryptophan Fluorescence spectroscopy (TFS) [Sindrewicz, P., et al., Intrinsic tryptophan fluorescence spectroscopy reliably determines galectin-ligand interactions. Scientific Reports, 2019. 9(1): p. 11851, herein incorporated by reference] The Galectin-3 concentration used was 10 μM and the compounds of Formula I and compounds of Formula II titration concentrations were from 0 to 224 μM. DMSO/control buffer (PBS with 2 mM EDTA) titrations were performed and used for background subtraction.

MDA-MB-231 cell = assay: Triple-negative breast cancer cell adhesion to basement matrix; type: cell-based, human; settings: for adhesion of control (Con) MDA-MB-231 cells: non-transfected cells (FIG. 15C, 15D); for MDA-MB-231 cell adhesion to matrix: different concentrations (FIG. 15A, 15B)
Method: (§4) Nanty-six well plates were coated with 50 μl Matrigel (1:30 diluted in PBS) at 37° C. for 1 hour. Cancer cells, pre-labelled with fluorescent die DiI at 37° C. for 20 minutes, were washed twice with PBS and resuspended into 3×10^4 cells/ml in serum-free medium. The matrix-coated 96-well plates were washed twice with PBS before introduction of […] cell suspension with different concentrations of the inhibitors or PBS/DMSO (control) for 1 hour at 37° C. The plates were washed twice with PBS before three randomly selected Field of Views (FOVs) were recorded by fluorescence microscope and number of adhesion cells were quantified by Image J.

H1975 cell = assay: Lung cancer cell adhesion to basement matrix; type: cell-based, human; settings: for IC50: Homo sapiens, NCI-H1975; for H1975 cell adhesion to matrix: different concentrations
Method: as §4

SW620 cells = assay: Tumour growth in mice (subcutaneous graft); type: in vivo, Balb/c nude mice; settings: 5 mg/kg subcutaneously, 3 times a week for 4 weeks
Method: (§5) The compound of Formula I effect on tumour growth was assessed in Balb/c nude mice. Luciferase-transfected human colon cancer SW620 cells were grafted subcutaneously to mice and the compound of Formula I (5 mg/kg) was administrated subcutaneously, 3 times a week for 4 weeks. Tumour growths were monitored by IVIS imaging (FIG. 11A) and also measured by clipers.
as §5, with “imaging” for “imaging (FIG. 11A)”
Female Balb/c nude mice aged 6-7 weeks were purchased from Charles River Laboratories (Margate, UK) and maintained in specific pathogen-free conditions with a 12:12 hour light:dark cycle. All animal studies were conducted with UK Home Office and local ethics committee approval.
Sixteen 6˜7 weeks old mice were randomly divided into two equal A and B groups (8 mice/group). The animals were injected s.c. with 2×10^6 ZsGreen- and luciferase-expressing SW620Gal3+ cells. […] Tumour size were measured with callipers every two days. […]

T1 sequence (P17931 whole entry): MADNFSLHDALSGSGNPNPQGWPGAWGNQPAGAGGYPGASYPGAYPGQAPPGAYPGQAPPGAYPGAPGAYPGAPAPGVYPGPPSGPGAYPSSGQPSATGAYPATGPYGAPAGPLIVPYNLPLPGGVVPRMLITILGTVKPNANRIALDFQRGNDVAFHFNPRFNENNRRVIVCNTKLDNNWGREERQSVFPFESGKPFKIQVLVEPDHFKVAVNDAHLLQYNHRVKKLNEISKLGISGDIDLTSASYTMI

Row | Structure (SMILES) | adhesion to matrix protein component laminin (SW620^Gal3− cells) | adhesion to matrix protein component laminin (SW620^Gal3+ cells) | HUVEC tubule formation, tubule numbers (HUVECs) | HUVEC tubule formation, vascular tubule length (HUVECs) | Kd (Galectin-3) | binding affinity (Kd) to Galectin-3 (Galectin-3) | adhesion of control (Con) MDA-MB-231 cells (MDA-MB-231 cell) | MDA-MB-231 cell adhesion to matrix (MDA-MB-231 cell) | IC50 (H1975 cell) | H1975 cell adhesion to matrix (H1975 cell) | inhibition of tumour growth (SW620 cells)
1 | C[C@H]1COc2c(N3CCN(C)CC3)c(F)cc3c(=O)c(C(=O)NNc4ccc(N)cc4)cn1c23 [Formula I] | much reduced effect | significantly inhibits | dose-dependently inhibition | dose-dependently inhibition | 18 µM | low μM | significant reduction; also recorded: significant inhibition | dose-dependent inhibition | > 20 µM | dose-dependently inhibits | 51%
2 | C[C@H]1COc2c(N3CCN(C)CC3)c(F)cc3c(=O)c(C(=O)NNc4cccc(N)c4)cn1c23 [Formula II] | much reduced effect | significantly inhibits | dose-dependently inhibition | dose-dependently inhibition | 30 µM | low μM | significant reduction; also recorded: significant inhibition | dose-dependent inhibition | ~10 µM | dose-dependently inhibits | –
